Laboratory results published in US11155814B2, “Methods for using DNA repair for cell engineering” (Caribou Biosciences, Inc., priority 2016, dated 2021).

Test system: HEK293T cells
Assay: Compound treatment: DNA-PK inhibitor added after sgRNP nucleofection, DNA repair outcomes profiled by amplicon sequencing
Assay type: cell-based, human
Protocol: For compound treatments, sgRNP formation and nucleofection of 293T cells was performed as described above and cells were plated in 150 μl of culture medium. One hour after plating, 50 μl of media containing compound at 4× the final concentration were delivered to the cells. […] 48 hours after compound addition, cells were harvested and processed for genomic DNA preparation as described below.
K562 cells and HSCs were transferred to a thermal cycler compatible plate and pelleted by centrifugation. After the media was gently aspirated, 50 μl EpiBio QuickExtract DNA extraction solution (Epicentre, QE09050) was added into each well and the plate was incubated at 37° C. for 15 minutes. For HEK293 and HCT116 cells, media was gently aspirated from 96-well culture plates and cells were gently rinsed with 1×Phosphate Buffered Saline (PBS). 50 μl of EpiBio QuickExtract DNA extraction solution was added to each well and the plates were incubated at 37° C. for 15 minutes. For all cell types, molecular biology grade water (Teknova) was added to each well to attain a concentration of 1000 genomic copies/μl for subsequent PCR reactions. After addition of water, adherent cells were then transferred to thermal cycler compatible plates. All cell types were lysed (75° C. 10 min, 95° C. 5 min) and the lysate was stored at −80° C. […]
Following secondary alignment, reads were then categorized as “mutant” if they contained an indel within ±5 base pairs of the cut site; otherwise, they were categorized as “wild type”. Each mutant read was assigned to an “indel class” based on the indel type (insertion or deletion), start site, and length.
Heat maps were generated from the processed sequencing data as follows. […] The color intensities in the cells correspond to frequency as a fraction of mutant reads, with the color scale ranging from 0 to 0.2 (saturation). […]

[1] = as inhibitor concentration increased (1.56 μM-25 μM), 48 hours

O=c1cc(N2CCOCC2)oc2c(-c3cccc4c3sc3ccccc34)cccc12 [NU7441]
mean frequency of a subset of large deletions (>3 base pairs) present in the DNA repair profiles [1]: increased
mean frequency of single base insertions and small deletions (<3 base pairs) [1]: decreased
change of the DNA repair patterns at 12 different target sites compared with untreated samples (lowest concentration of inhibitor (1.56 μM), added one hour post nucleofection, harvested 48 hours): apparent
